In patent publication US6797700B2, “Antithrombotic azacycloalkylalkanoyl peptides and pseudopeptides” (Aventis Pharmaceuticals, Inc., priority 1993, dated 2004):
Read-outs that look alike come from different tables or passages of the source.

Columns and labels:
[1] = tested on: fixed activated platelets; assay: Platelet Aggregation Assay (fixed-activated platelets, fibrinogen-mediated aggregation); type: cell-based; settings: aggregation initiated by human fibrinogen 250 μg/ml, read-out: Inhibition of Fixed Platelet Aggregation (IC50 μM)
Procedure: Preparation of Fixed-Activated Platelets
Platelets are isolated from human platelet concentrates using the gel-filtration technique as described by Marguerie, G. A., et al., J. Biol. Chem. 254, 5357-5363 (1979) and Ruggeri, Z. M., et al., J. Clin. Invest. 72, 1-12 (1983). The platelets are suspended at a concentration of 2×10^8 cells/ml in a modified calcium-free Tyrode's buffer containing 127 mM sodium chloride, 2 mM magnesium chloride, 0.42 mM Na2HPO4, 11.9 mM NaHCO3, 2.9 mM KCl, 5.5 mM glucose, 10 mM HEPES, at a pH of 7.35 and 0.35% human serum albumin (HSA). These washed platelets are activated by addition of human a-thrombin at a final concentration of 2 units/ml, followed by thrombin inhibitor I-2581 at a final concentration of 40 μM. To the activated platelets is added paraformaldehyde to a final concentration of 0.50% and this incubated at room temperature for 30 minutes. The fixed activated platelets are then collected by centrifugation at 650×g for 15 minutes. The platelet pellets are washed four times with the above Tyrode's-0.35% HSA buffer and resuspended to 2×10^8 cells/ml in the same buffer.
Platelet Aggregation Assay
The fixed activated platelets are incubated with a selected dose of the compound to be tested for platelet aggregation inhibition for one minute and aggregation initiated by addition of human fibrinogen to a final concentration of 250 μg/ml. A platelet aggregation profiler Model PAP-4 is used to record the platelet aggregation. The extent of inhibition of aggregation is expressed as the percentage of the rate of aggregation observed in the absence of inhibitor.

[2] = tested on: ADP-induced platelet aggregation in canine platelet rich plasma; assay: Inhibition of ADP-Induced ex-vivo Platelet Aggregation after oral administration; type: in vivo, mongrel dogs; settings: dog, dose 5 mg/kg; for inhibition at 5 mg/kg: Canis lupus familiaris, Platelet
Procedure: Inhibition of ADP-Induced ex-vivo Platelet Aggregation
Control blood samples are obtained 5-10 minutes prior to administration of the test compound in mongrel dogs weighing from 10 to 20 kg. The compound is administered intragasticly, via aqueous gavage, or orally, via gelatin capsule. Blood samples (5 ml) are then obtained at 30 minute intervals for 3 hours, and at 6, 12, and 24 hours after dosing. Each blood sample is obtained by venipuncture of the cephalic vein and is collected directly into a plastic syringe containing one part 3.8% trisodium citrate to nine parts blood.
Ex vivo Canine Platelet Aggregation
The blood samples are centrifuged at 1000 rpm for 10 minutes to obtain platelet rich plasma (PRP). After removal of the PRP, the sample is centrifuged for an additional 10 minutes at 2000 rpm to obtain platelet poor plasma (PPP). Platelet count in the PRP is determined by using a Coulter Counter (Coulter Electronics, Hialeah, Fla.). If the concentration of platelets in the PRP is greater than 300,000 platelets/μl, then the PRP is diluted with PPP to adjust the platelet count to 300,000 platelets/μl. Aliquots of PRP (250 μl) are then placed in siliconized glass cuvettes (7.25×55 mm, Bio/Data Corp, Horsham, Pa.). Epinephrine (final concentration of 1 μM) is then added to the PRP, which is incubated for one minute at 37° C. A stimulator of platelet aggregation, ADP at a final concentration of 10 μM, is then added to the PRP. Platelet aggregation is monitored spectrophotometrically utilizing a light transmission aggregometer (Bio/Data Platelet Aggregation Profiler, Model PAP-4, Bio/Data Corp, Horsham, Pa.). For compound to be tested, the rate of change (slope) of light transmittance and the maximum light transmittance (maximum aggregation) is recorded in duplicate. Platelet aggregation data are reported as the percent decrease (mean±SEM) in slope or maximum aggregation as compared to data obtained from control PRP, which is prepared from blood samples obtained prior to administration of the test compound.

[3] = fixed activated human platelets
[4] = 1 h after dosing, read-out: % Inhibition of ex-vivo Platelet Aggregation After Oral Administration, 1 h
[5] = 3 h after dosing, read-out: % Inhibition of ex-vivo Platelet Aggregation After Oral Administration, 3 h
[6] = 6 h after dosing, read-out: % Inhibition of ex-vivo Platelet Aggregation After Oral Administration, 6 h

Row | SMILES | IC50 ([1]; Homo sapiens, Platelet) | other results
1 | O=C(O)C[C@H](NC(=O)CNC(=O)CCCC1CCNCC1)C(=O)N[C@@H](Cc1c[nH]c2ccccc12)C(=O)O [Compound of EPA '481, 4-4(piperidyl)butanoyl glycyl aspartyl tryptophan, reference compound] | – | IC50 [1, 3]: 0.047 µM; % Inhibition of ex-vivo Platelet Aggregation After Oral Administration, 1 h ([2]; 1 h after dosing): 53%; % Inhibition of ex-vivo Platelet Aggregation After Oral Administration, 3 h ([2]; 3 h after dosing): <20%
2 | CCN(CC(=O)NC(CC(=O)O)C(=O)NC(CC1CCCCC1)C(=O)O)C(=O)CCCC1CCNCC1 (centres unmarked) [Example 1, N-[N-[N-(4-(piperidin-4-yl)butanoyl)-N-ethylglycyl]aspartyl]-b-cyclogexylalanine] | 0.026 µM | inhibition at 5 mg/kg [2, 4]: 100%; inhibition at 5 mg/kg [2, 5]: 100%; inhibition at 5 mg/kg [2, 6]: 100%; inhibition at 5 mg/kg ([2]; 12 h after dosing, read-out: % Inhibition of ex-vivo Platelet Aggregation After Oral Administration, 12 h): 88%; inhibition at 5 mg/kg ([2]; 24 h after dosing, read-out: % Inhibition of ex-vivo Platelet Aggregation After Oral Administration, 24 h): 42%
3 | CCN(CC(=O)NC(CC(=O)O)C(=O)NC(Cc1ccc2ccccc2c1)C(=O)O)C(=O)CCCC1CCNCC1 [Example 8, N-[N-[N-(4(piperidin-4-yl)butanoyl)-N-ethylglycyl]aspartyl]-L-b-naphth-2-yl alanine] | – | inhibition at 5 mg/kg [2, 4]: 30%; inhibition at 5 mg/kg [2, 5]: < 20%
4 | CCN(CC(=O)NC(CC(=O)O)C(=O)NC(C(=O)O)C(C)C)C(=O)CCC1CCNCC1 (centres unmarked) [Example 9, N-[N-[N-(3-(piperidin-4-yl)propanoyol)-N-ethylglycyl]aspartyl]valine] | 0.77 µM | –
5 | CCN(CC(=O)NC(CC(=O)O)C(=O)NC(C(=O)O)C1CCCCC1)C(=O)CCCC1CCNCC1 [Example 13, N-[N-[N-(4-(piperidin-4-yl)butanoyl)-N-ethylglycyl]aspartyl]-L-a-cyclohexyl glycine] | – | inhibition at 5 mg/kg [2, 4]: 100%; inhibition at 5 mg/kg [2, 5]: 100%; inhibition at 5 mg/kg [2, 6]: 25%
6 | CCN(CC(=O)NC(CC(=O)O)C(=O)NC(CC1CCC2CCCCC2C1)C(=O)O)C(=O)CCCC1CCNCC1 [Example 17, N-[N-[N-(4-(piperidin-4-yl)butanoyl)-N-ethylglycyl]aspartyl]-L-b-cis-decahydronaphth-2-ylalanine] | 0.096 µM | –
7 | CCN(CC(=O)NC(CC(=O)O)C(=O)OCCCC12CC3CC(CC(C3)C1)C2)C(=O)CCCC1CCNCC1 (centres unmarked) [Example 18, 3-Adamant-1-ylpropyl-N-[N-(4-(piperidin-4-yl)butanoyl)-N-ethylglycyl]aspartate] | 0.104 µM | –
8 | CCN(CC(=O)NC(CC(=O)O)C(=O)NC(CC1CCCC2CCCCC21)C(=O)O)C(=O)CCCC1CCNCC1 (centres unmarked) [Example 21, N-[N-[N-(4-(piperidin-4-yl)butanoyl)-N-ethylglycyl]aspartyl]-b-decahydronaphth-1-ylalanine] | – | IC50 [1, 3]: 0.055 µM
9 | CCN(CC(=O)NC(CC(=O)O)C(=O)NC(CC1CCCCCCC1)C(=O)O)C(=O)CCCC1CCNCC1 (centres unmarked) [Example 23, N-[N-[N-(4-(piperidin-4-yl)butanoyl)-N-ethylglycyl]aspartyl]-b-cyclooctylalanine] | 0.078 µM | –
10 | CCN(CC(=O)NC(CC(=O)O)C(=O)NC(CC12CC3CC(CC(C3)C1)C2)C(=O)O)C(=O)CCCC1CCNCC1 (centres unmarked) [Example 26, N-[N-[N-(4-(piperidin-4-yl)butanoyl)-N-ethylglycyl]aspartyl]-b-adamant-1-ylalanine] | 0.029 µM | –
11 | CCN(CC(=O)NC(CC(=O)O)C(=O)NC(CC1CCCCCC1)C(=O)O)C(=O)CCCC1CCNCC1 (centres unmarked) [Example 29, N-[N-[N-(4-(piperidin-4-yl)butanoyl)-N-ethylglycyl]aspartyl]-b-cycloheptylalanine] | 0.032 µM | –
12 | CCOC(=O)C(CCC1CCCCC1)NC(=O)C(CC(=O)O)NC(=O)CN(CC)C(=O)CCCC1CCNCC1 (centres unmarked) [Example 34, N-[N-[N-(4-(piperidin-4-yl)butanoyl)-N-ethylglycyl]aspartyl]-b-cyclohexylmethylalanine ethyl ester] | 0.074 µM | –

Second part, led by results:

Row | IC50 ([1]; Homo sapiens, Platelet) | SMILES | other results
13 | 1.37 µM | CCN(CC(=O)NC(CC(=O)O)C(=O)N[C@H](CC1CCCCC1)C(=O)O)C(=O)CCCC1CCNCC1 (stereo partly drawn) [Example 20, N-[N-[N-(4-(piperidin-4-yl)butanoyl)-N-ethylglycyl]aspartyl]-b-cyclohexyl-D-alanine] | –
14 | 0.09 µM | CCNC(=O)C(CC1CCCCC1)NC(=O)C(CC(=O)O)NC(=O)CN(CC)C(=O)CCCC1CCNCC1 (centres unmarked) [Example 22, N-[N-[N-(4-(piperidin-4-yl)butanoyl)-N-ethylglycyl]aspartyl]-b-cyclohexylalanine ethyl amide] | –
15 | 0.129 µM | CCN(CC(=O)NC(CC(=O)O)C(=O)NC(CO)CC1CCCCC1)C(=O)CCCC1CCNCC1 (centres unmarked) [Example 24, N-[N-[N-(4-(piperidin-4-yl)butanoyl)-N-ethylglycyl]aspartyl]-a-cyclohexylmethylethanolamine] | –
16 | 0.046 µM | CCN(CC(=O)NC(CC(=O)O)C(=O)NC(CCC1CCCCC1)C(N)=O)C(=O)CCCC1CCNCC1 (centres unmarked) [Example 25, N-[N-[N-(4-(piperidin-4-yl)butanoyl)-N-ethylglycyl]aspartyl]-b-cyclohexylmethylalanine amide] | –
17 | 0.119 µM | CCN(CC(=O)NC(CC(=O)O)C(=O)NC(Cc1cccc2c1CCCC2)C(=O)O)C(=O)CCCC1CCNCC1 (centres unmarked) [Example 27, N-[N-[N-(4-(piperidin-4-yl)butanoyl)-N-ethylglycyl]aspartyl]-b-(1,2,3,4)-tetrahydronaphth-5-ylalanine] | –
18 | 0.048 µM | CCN(CC(=O)NC(CC(=O)O)C(=O)NC(CC1CCC(C2CCCCC2)CC1)C(=O)O)C(=O)CCCC1CCNCC1 (centres unmarked) [Example 28, N-[N-[N-(4-(piperidin-4-yl)butanoyl)-N-ethylglycyl]aspartyl]-b-(4-cyclohexyl)cyclohexylalanine] | –
19 | 0.07 µM | CCN(CC(=O)NC(CC(=O)O)C(=O)NC(CC1CCCCCCC1)C(N)=O)C(=O)CCCC1CCNCC1 (centres unmarked) [Example 30, N-[N-[N-(4-(piperidin-4-yl)butanoyl)-N-ethylglycyl]aspartyl]-b-cyclooctylalanine amide] | –
20 | 0.053 µM | CCN(CC(=O)NC(CC(=O)O)C(=O)NC(CCCC1CCCCC1)C(=O)O)C(=O)CCCC1CCNCC1 (centres unmarked) [Example 31, N-[N-[N-(4-(piperidin-4-yl)butanoyl)-N-ethylglycyl]aspartyl]-a-cyclohexylpropylglycine] | –
21 | 0.052 µM | CCN(CC(=O)NC(CC(=O)O)C(=O)NC(CCC1CCCCCCC1)C(=O)O)C(=O)CCCC1CCNCC1 (centres unmarked) [Example 32, N-[N-[N-(4-(piperidin-4-yl)butanoyl)-N-ethylglycyl]aspartyl]-b-cyclooctylmethylalanine] | –
22 | 0.047 µM | CCN(CC(=O)NC(CC(=O)O)C(=O)NC(CC1CCCC1)C(=O)O)C(=O)CCCC1CCNCC1 (centres unmarked) [Example 33, N-[N-[N-(4-(piperidin-4-yl)butanoyl)-N-ethylglycyl]aspartyl]-b-cyclopentylalanine] | –
